The values that follow are results of earlier work, collected in patent US9730899B2, “Controlled release pharmaceutical composition with resistance against the influence of ethanol employing a coating comprising neutral vinyl polymers and excipients” (Evonik Roehm GmbH, priority 2009, dated 2017).

Where a name gives a salt, the structure may show the parent alone. Read-outs that look alike come from different tables or passages of the source.

For this series the following is noted: USP classification, between 15° C. and 25° C.

With `NC(=O)N1c2ccccc2C=Cc2ccccc21` [Carbamazepine], the Solubility in ethanol entry is “Soluble (more than 10 to 30)” and the Solubility in water entry was “Practically insoluble (more than 10.000)”.
As for `COc1ccc([C@@H]2Sc3ccccc3N(CCN(C)C)C(=O)[C@@H]2OC(C)=O)cc1` [Diltiazem HCl], the Solubility in water result is on record as “Freely soluble (from 1 to 10)”. The Solubility in ethanol entry (HCl) is given as “Sparingly soluble (more than 30 to 100)”. In addition, for the setting “listed as diltiazem, HCl”, the Solubility in ethanol result is given as “sparingly soluble”.
In the case of `COCCc1ccc(OCC(O)CNC(C)C)cc1` (centres unmarked) [Metoprolol succinate], the Solubility in ethanol entry is reported as “Sparingly soluble (more than 30 to 100)” and the Solubility in water entry was “Freely soluble (from 1 to 10)”. For the same compound, for the setting “listed as metoprolol”, the Solubility in ethanol entry was “sparingly soluble”.
Take `C=CCN1CC[C@]23c4c5ccc(O)c4O[C@H]2C(=O)CC[C@@]3(O)[C@H]1C5` [Naloxone]: the Solubility in ethanol result was “Slightly soluble (more than 100 to 1000)” and the Solubility in water entry is recorded as “Soluble (more than 10 to 30)”. Also, the Solubility in ethanol result (listed as naloxone) was “slightly soluble”.
Turning to `Cn1c(=O)c2[nH]cnc2n(C)c1=O` [Theophylline], the Solubility in ethanol result was “Sparingly soluble (more than 30 to 100)” and the Solubility in water entry was “Slightly soluble (more than 100 to 1000)”. In addition, the Solubility in ethanol entry (listed as theophyllin) was “sparingly soluble”.
